From patent US20260347353A1, “INDOLIZINE DERIVATIVES FOR TREATING CANCER” (Antares Therapeutics, Inc., priority 2022, published 2026)

Tests used:
[1] = target: T1, p53 Y220C mutant protein (amino acid residues 94-293) (Homo sapiens, UniProt P04637, Y220C); experiment: Surface Plasmon Resonance (SPR) assay, p53 Y220C Kd_kinetic; settings: multi-cycle kinetics, 16 or 20 °C, pH 7.5, 1:1 binding model
T1 construct: p53 Y220C mutant protein (amino acid residues 94-293)
Protocol: SPR experiments are performed on a Biacore 8K instrument. […] Compounds are 2-fold, 7-point serial diluted; the top concentration varies depending on the potency. Compound binding affinities are measured in the multi-cycle kinetics mode, at 30 μL/min flow rate with 60 seconds association time and 120 seconds dissociation time. The running buffer contains 50 mM Tris, pH 7.5, 100 mM NaCl, 1 mM DTT, 0.01% Brij35, 0.05% Tween-20 and 1% DMSO. The assay temperature is maintained at 16 or 20 °C and data are fit into the 1:1 binding model using the Biacore Insight Evaluation software.

p53 Y220C = p53 Y220C (Homo sapiens, UniProt P04637, Y220C); experiment: Luciferase Reporter Assay, p53 Y220C (NCIH1299 cells with inducible p53 Y220C and p53 response element-luciferase); assay type: cell-based; settings: 6 hour compound treatment, read-out: Luc P53 Y220C AC50
Protocol: Luciferase reporter (Luc) driven by p53 response element (LTV-p53-Luc (SKU #: LTLR007); G&P Biosciences) and inducible p53 Y220C construct (Tet-One inducible expression system; Takara) were stably expressed in NCIH1299 cells by lentiviral transduction. The cells were then used for p53 reporter assay. 5,000 cells were seeded in each well of 384 plate and cultured in 0.5 ug/mL doxycycline (D3072; Sigma) containing medium for 24 hours before compound treatment. After 6 hour of compound treatment, equal volume of One-Glo reagent (E6110; Promega) was added to each well and the plate was incubated for 5 minutes with shaking at room temperature. The luciferase activity was immediately measured with PheraStar microplate reader. Luciferase activity was stimulated by 10 uM of a tool compound as positive control and AC50 was calculated.

NUGC3 cells (p53 Y220C) = experiment: Cell Proliferation Assay (CellTiter-Glo), NUGC3 p53 Y220C; assay type: cell-based; settings: Homo sapiens, NUGC-3, 120 h, 5 days, read-out: CTG NUGC3 P53 Y220C IC50
Protocol: (§1) Inducible p53 Y220C and R273H constructs (Tet-One inducible expression system; Takara) were stably expressed in NCIH1299 cells by lentiviral transduction. NUGC3, A549, BxPC3, T3M4, HuH7, HCC2935, MFE296, NCIH1299, NCIH1299-inducible p53 Y220C, and NCIH1299-inducible p53 R273H cell lines were used for cell proliferation assay. 250-500 cells were seeded in each well of 384 plate and then compounds were dispensed into each well using Echo or Tecan. After 5 days of incubation, equal volume of CellTiter-Glo reagent (G7570; Promega) was added into each well and the plate was incubated at room temperature for 10 minutes with shaking. The luminescent signal was measured by PheraStar microplate reader and IC50 was calculated.

[2] = tested on: NCIH1299-inducible p53 Y220C cells; experiment: Cell Proliferation Assay (CellTiter-Glo), NCIH1299-inducible p53 Y220C; assay type: cell-based; settings: Homo sapiens, NCI-H1299, 120 h, 5 days, read-out: CTG H1299 P53 Y220C IC50
Protocol: as §1

T1 sequence (P04637 94-293, stated change not applied): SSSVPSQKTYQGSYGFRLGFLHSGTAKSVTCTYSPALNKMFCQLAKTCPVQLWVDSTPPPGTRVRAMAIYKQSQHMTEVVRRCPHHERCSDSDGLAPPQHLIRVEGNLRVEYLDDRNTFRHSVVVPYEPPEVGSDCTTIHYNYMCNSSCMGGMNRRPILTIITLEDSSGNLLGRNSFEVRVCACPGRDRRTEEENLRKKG

| Kd [1] [nM] | AC50 (p53 Y220C) [nM] | SMILES | IC50 (NUGC3 cells (p53 Y220C)) [nM] | IC50 [2] [nM] |
| --- | --- | --- | --- | --- |
| < 10 | < 750 | CN1CC[C@@H](Nc2cccn3c(SC(F)(F)F)c(-c4noc(CNC(=O)c5ccn(C(C)(C)C)c5)n4)cc23)[C@@H](F)C1 [Example 7, 1-tert-butyl-N-{[3-(8-{[(3S,4R)-3-fluoro-1-methylpiperidin-4-yl]amino}-3-[(trifluoromethyl)sulfanyl]indolizin-2-yl)-1,2,4-oxadiazol-5-yl]methyl}pyrrole-3-carboxamide] | < 750 | < 750 |
| < 10 | 1500 to 3000 | CN1CC[C@@H](Nc2cccn3c(SC(F)(F)F)c(-c4noc(CNC(=O)C5CC(O)C5)n4)cc23)[C@@H](F)C1 (stereo partly drawn) [Example 8, (1r,3r)-N-{[3-(8-{[(3S,4R)-3-fluoro-1-methylpiperidin-4-yl]amino}-3-[(trifluoromethyl)sulfanyl]indolizin-2-yl)-1,2,4-oxadiazol-5-yl]methyl}-3-hydroxycyclobutane-1-carboxamide] | 1500 to 3000 | 750 to 1500 |
| < 10 | 750 to 1500 | CN1CC[C@@H](Nc2cccn3c(SC(F)(F)F)c(-c4noc(CNC(=O)[C@@H]5COCCO5)n4)cc23)[C@@H](F)C1 [Example 11, (2S)—N-{[3-(8-{[(3S,4R)-3-fluoro-1-methylpiperidin-4-yl]amino}-3-[(trifluoromethyl)sulfanyl]indolizin-2-yl)-1,2,4-oxadiazol-5-yl]methyl}-1,4-dioxane-2-carboxamide] | 750 to 1500 | 750 to 1500 |
| < 10 | < 750 | CN1CC[C@@H](Nc2cccn3c(SC(F)(F)F)c(-c4noc(CNC(=O)c5cnc(N(C)C)o5)n4)cc23)[C@@H](F)C1 [Example 12, 2-(dimethylamino)-N-{[3-(8-{[(3S,4R)-3-fluoro-1-methylpiperidin-4-yl]amino}-3-[(trifluoromethyl)sulfanyl]indolizin-2-yl)-1,2,4-oxadiazol-5-yl]methyl}-1,3-oxazole-5-carboxamide] | < 750 | < 750 |
| < 10 | < 750 | CN1CC[C@@H](Nc2cccn3c(SC(F)(F)F)c(-c4noc(CNC(=O)c5cnc(C(C)(C)C)o5)n4)cc23)[C@@H](F)C1 [Example 13, 2-tert-butyl-N-{[3-(8-{[(3S,4R)-3-fluoro-1-methylpiperidin-4-yl]amino}-3-[(trifluoromethyl)sulfanyl]indolizin-2-yl)-1,2,4-oxadiazol-5-yl]methyl}-1,3-oxazole-5-carboxamide] | < 750 | < 750 |
| 10 to 100 | 1500 to 3000 | Cc1c(C(=O)NCc2nc(-c3cc4c(N[C@@H]5CCN(C)C[C@@H]5F)cccn4c3SC(F)(F)F)no2)sc2nc[nH]c(=O)c12 [Example 14, N-{[3-(8-{[(3S,4R)-3-fluoro-1-methylpiperidin-4-yl]amino}-3-[(trifluoromethyl)sulfanyl]indolizin-2-yl)-1,2,4-oxadiazol-5-yl]methyl}-5-methyl-4-oxo-3H-thieno[2,3-d]pyrimidine-6-carboxamide] | 750 to 1500 | 750 to 1500 |
| < 10 | 750 to 1500 | CN1CC[C@@H](Nc2cccn3c(SC(F)(F)F)c(-c4noc(CNC(=O)c5ccc6c(c5)NC(=O)C6)n4)cc23)[C@@H](F)C1 [Example 16, N-{[3-(8-{[(3S,4R)-3-fluoro-1-methylpiperidin-4-yl]amino}-3-[(trifluoromethyl)sulfanyl]indolizin-2-yl)-1,2,4-oxadiazol-5-yl]methyl}-2-oxo-1,3-dihydroindole-6-carboxamide] | < 750 | 750 to 1500 |
| < 10 | < 750 | CN1CC[C@@H](Nc2cccn3c(SC(F)(F)F)c(-c4noc(CNC(=O)c5cccc6c5NC(=O)C6)n4)cc23)[C@@H](F)C1 [Example 17, N-{[3-(8-{[(3S,4R)-3-fluoro-1-methylpiperidin-4-yl]amino}-3-[(trifluoromethyl)sulfanyl]indolizin-2-yl)-1,2,4-oxadiazol-5-yl]methyl}-2-oxo-1,3-dihydroindole-7-carboxamide] | < 750 | 750 to 1500 |
| < 10 | 750 to 1500 | CN1CC[C@@H](Nc2cccn3c(SC(F)(F)F)c(-c4noc(CNC(=O)c5ccc6c(c5)CC(=O)N6)n4)cc23)[C@@H](F)C1 [Example 18, N-{[3-(8-{[(3S,4R)-3-fluoro-1-methylpiperidin-4-yl]amino}-3-[(trifluoromethyl)sulfanyl]indolizin-2-yl)-1,2,4-oxadiazol-5-yl]methyl}-2-oxo-1,3-dihydroindole-5-carboxamide] | < 750 | 750 to 1500 |
| < 10 | < 750 | CN1CC[C@@H](Nc2cccn3c(SC(F)(F)F)c(-c4noc(CNC(=O)c5csc(N6CCOCC6)n5)n4)cc23)[C@@H](F)C1 [Example 20, N-{[3-(8-{[(3S,4R)-3-fluoro-1-methylpiperidin-4-yl]amino}-3-[(trifluoromethyl)sulfanyl]indolizin-2-yl)-1,2,4-oxadiazol-5-yl]methyl}-2-(morpholin-4-yl)-1,3-thiazole-4-carboxamide] | < 750 | < 750 |

Further lines, the compound ahead of its results:

| SMILES | Kd [1] [nM] | AC50 (p53 Y220C) [nM] | IC50 (NUGC3 cells (p53 Y220C)) [nM] | IC50 [2] [nM] |
| --- | --- | --- | --- | --- |
| CN1CC[C@@H](Nc2cccn3c(SC(F)(F)F)c(-c4nsc(CNC(=O)c5cnn(C(C)(C)C)c5)n4)cc23)[C@@H](F)C1 [Example 5, 1-tert-butyl-N-{[3-(8-{[(3S,4R)-3-fluoro-1-methylpiperidin-4-yl]amino}-3-[(trifluoromethyl)sulfanyl]indolizin-2-yl)-1,2,4-thiadiazol-5-yl]methyl}pyrazole-4-carboxamide] | 100 to 1000 | ≥ 3000 | ≥ 3000 | ≥ 3000 |
| CN1CC[C@@H](Nc2cccn3c(SC(F)(F)F)c(-c4nsc(CNC(=O)c5ccn(C(C)(C)C)c5)n4)cc23)[C@@H](F)C1 [Example 6, 1-tert-butyl-N-{[3-(8-{[(3S,4R)-3-fluoro-1-methylpiperidin-4-yl]amino}-3-[(trifluoromethyl)sulfanyl]indolizin-2-yl)-1,2,4-thiadiazol-5-yl]methyl}pyrrole-3-carboxamide] | ≥ 1000 | ≥ 3000 | ≥ 3000 | ≥ 3000 |
| COc1ccc2n[nH]c(CC(=O)NCc3nc(-c4cc5c(N[C@@H]6CCN(C)C[C@@H]6F)cccn5c4SC(F)(F)F)no3)c2c1 [Example 9, N-{[3-(8-{[(3S,4R)-3-fluoro-1-methylpiperidin-4-yl]amino}-3-[(trifluoromethyl)sulfanyl]indolizin-2-yl)-1,2,4-oxadiazol-5-yl]methyl}-2-(5-methoxy-1H-indazol-3-yl)acetamide] | 100 to 1000 | ≥ 3000 | 1500 to 3000 | 1500 to 3000 |
| CN1CC[C@@H](Nc2cccn3c(SC(F)(F)F)c(-c4noc(CNC(=O)c5ccc6c(c5)C(C)(C)C(=O)N6)n4)cc23)[C@@H](F)C1 [Example 15, N-{[3-(8-{[(3S,4R)-3-fluoro-1-methylpiperidin-4-yl]amino}-3-[(trifluoromethyl)sulfanyl]indolizin-2-yl)-1,2,4-oxadiazol-5-yl]methyl}-3,3-dimethyl-2-oxo-1H-indole-5-carboxamide] | < 10 | < 750 | < 750 | < 750 |
| CN1CC[C@@H](Nc2cccn3c(SC(F)(F)F)c(-c4noc(CNC(=O)c5ccc6[nH]cc(C#N)c6c5)n4)cc23)[C@@H](F)C1 [Example 19, 3-cyano-N-{[3-(8-{[(3S,4R)-3-fluoro-1-methylpiperidin-4-yl]amino}-3-[(trifluoromethyl)sulfanyl]indolizin-2-yl)-1,2,4-oxadiazol-5-yl]methyl}-1H-indole-5-carboxamide] | 10 to 100 | 750 to 1500 | < 750 | < 750 |
| COc1ccc2[nH]nc(C(=O)NCc3nc(-c4cc5c(N[C@@H]6CCN(C)C[C@@H]6F)cccn5c4SC(F)(F)F)no3)c2c1 [Example 21, N-{[3-(8-{[(3S,4R)-3-fluoro-1-methylpiperidin-4-yl]amino}-3-[(trifluoromethyl)sulfanyl]indolizin-2-yl)-1,2,4-oxadiazol-5-yl]methyl}-5-methoxy-1H-indazole-3-carboxamide] | 100 to 1000 | 1500 to 3000 | 1500 to 3000 | 1500 to 3000 |
